The record followed here is PMC9531372, “Metabolic profiling and pharmacokinetic studies of Baihu-Guizhi decoction in rats by UFLC-Q-TOF–MS/MS and UHPLC-Q-TRAP-MS/MS” (Chinese Medicine, 2022).

For orientation: AUC(0-inf) means the area under the concentration-time curve extrapolated to infinity. Low values mean low exposure, high ones high exposure. As usually defined, the AUC(0-t) is exposure summed from dosing to a finite time, without extrapolation to infinity. Read a high AUC(0-t) as more exposure. What is called Cmax is the peak of the concentration-time curve. For orientation: MRT inf means a mean duration of stay, worked out from the concentration-time curve. In general, MRT last refers to a mean duration of stay, worked out from the concentration-time curve. A word on the half-life: it is the time in which the quantity being followed falls by half. By Tmax is commonly meant the time from dosing to the highest level.

This data set in a line: Pharmacokinetics of five absorbed components in rat serum after single or multiple gavage of BHGZD (UHPLC-Q-TRAP-MS/MS). The following applies: for AUC(0-inf) / AUC(0-t) / Cmax / MRT inf / MRT last / half-life / Tmax / CL / Vd: male, Lewis, rat, po. From the text:
Male Lewis rats, weighing 200–240 g, were purchased from Beijing Charles River Experimental Animals Co. Ltd. (Beijing, China). […] Animal experiments were approved and supervised by the National Institutes of Health guide for the care and use of Laboratory animals. Every effort was made to minimize both the employed animal numbers as well as the potential discomfort of the animals throughout the study.
For single administration, rats were orally administrated with BHGZD powder at dose of 21.4 g/kg, which was equivalent to two-fold of clinical dose in human. […] For multiple administration, rats were intragastrically administered BHGZD (21.4 g/kg/day) once a day, for continuous 12 days. […] Serum was freshly prepared by centrifugation and stored at – 80 ℃ till analysis.
Quantification for five absorbed compounds of BHGZD in rat serum were achieved by using a Shimadzu ultra-high-performance liquid chromatography tandem ion trap quadrupole Q-TRAP 6500 plus mass spectrometry (UHPLC-Q-TRAP-MS/MS). Sample preparations were described above.
Chromatographic separation was carried out on a Poroshell 120 EC-C18 column (50 × 3.0 mm, 2.7 μm, Agilent, USA) with a flow rate 0.3 mL/min.
The optimized parameters for the mass spectrometer were set as follows: curtain gas, 35 psi; collision gas, medium; ionspray voltage, 4500 V; temperature, 550 °C; ion source gas 1 and 2, 55 psi. […] Data acquisition and analysis were achieved by OS-Q software (version 1.4.1.20719, AB Sciex, USA). Pharmacokinetic analysis was conducted by Drug and Statistic software (version 3.0, Shanghai, China).
The developed methodology was then applied for the in vivo pharmacokinetic evaluations of these five absorbed components. After single or multiple gavages of BHGZD, rat serum was collected at indicated time points, and the concentrations of five analyte were quantified accordingly.

Where [1] appears, read: serum, 21.4 g/kg, rat serum, BHGZD 21.4 g/kg oral gavage, single dose, n = 8, mean ± SEM.

Turning to `O=C(O)/C=C/c1ccccc1` [Cinnamic acid], where the note is “serum, 21.4 g/kg”, the AUC(0-inf) came out at 0.307 ± 0.12 µg·h/mL, the exposure AUC(0-t) came to 0.11 ± 0.127 µg·h/mL, the Cmax stood at 0.0533 ± 0.0326 µg/mL and the MRT inf is 10.5 ± 12.5 h. Where the note is “serum, 21.4 g/kg”, this compound gave a mean residence time MRT last of 3.66 ± 1.03 h and a half-life of 2.36 ± 1.03 h. Besides, under “serum, 21.4 g/kg, rat serum after BHGZD gavage, regimen not given”, the Tmax was about 0.3 h. Further, the time to peak (Tmax) under setting [1] was determined as 0.37 ± 0.35 h.

Consider `CC1(C)[C@@H](O[C@H]2O[C@H](C(=O)O)[C@@H](O)[C@H](O)[C@H]2O[C@@H]2O[C@H](C(=O)O)[C@@H](O)[C@H](O)[C@H]2O)CC[C@]2(C)[C@H]3C(=O)C=C4[C@@H]5C[C@@](C)(C(=O)O)CC[C@]5(C)CC[C@@]4(C)[C@]3(C)CC[C@@H]12` [Glycyrrhizic acid], for which, where the note is “in vivo, 21.4 g/kg”, the total exposure AUC(0-inf) was 0.0918 ± 0.0442 µg·h/mL, the exposure AUC(0-t) is 0.0673 ± 0.0368 µg·h/mL, the CL is reported as 288,330 ± 150,321 L/h/kg and the Cmax was 0.0156 ± 0.00897 µg/mL. For the setting “in vivo, 21.4 g/kg”, the mean residence time (MRT inf) was determined as 5.83 ± 1.42 h, the MRT last came out at 5.06 ± 1.37 h, the Vd was 867,518 ± 160,982 L/kg and the half-life was 2.99 ± 0.82 h. Also, the Tmax (in vivo, 21.4 g/kg) amounted to 5.88 ± 2.85 h.

As to `O=c1c2cc(O)c(O)cc2oc2cc(O)c([C@@H]3O[C@H](CO)[C@@H](O)[C@H](O)[C@H]3O)c(O)c12` [Mangiferin], for the setting “in vivo, 21.4 g/kg”, the AUC(0-inf) turned out to be 0.298 ± 0.298 µg·h/mL, the exposure AUC(0-t) was determined as 0.266 ± 0.306 µg·h/mL, the CL is recorded as 228,709 ± 238,817 L/h/kg and the concentration peaked (Cmax) at 0.0481 ± 0.0527 µg/mL. In addition, under “in vivo, 21.4 g/kg”, the MRT inf worked out at 6.72 ± 6.64 h, the MRT last came out at 3.6 ± 0.75 h, the Vd is given as 1,049,685 ± 1,125,516 L/kg and the half-life is 3.64 ± 4.82 h. In addition, the Tmax (in vivo, 21.4 g/kg) is 2.56 ± 1.68 h.

Regarding `C[C@H]1CC[C@@]2(OC1)O[C@H]1C[C@H]3[C@@H]4CC[C@@H]5C[C@@H](O[C@@H]6O[C@H](CO)[C@H](O)[C@H](O)[C@H]6O[C@@H]6O[C@H](CO)[C@@H](O)[C@H](O)[C@H]6O)CC[C@]5(C)[C@H]4CC[C@]3(C)[C@H]1[C@@H]2C` [Timosaponin AIII], under “serum, 21.4 g/kg”, the total exposure AUC(0-inf) was determined as 0.0453 ± 0.0139 µg·h/mL, the exposure AUC(0-t) turned out to be 0.0356 ± 0.00799 µg·h/mL, the maximum concentration (Cmax) came out at 0.00541 ± 0.00123 µg/mL and the mean residence time MRT inf is 9.92 ± 2.73 h. Also, under “serum, 21.4 g/kg”, the mean residence time (MRT last) amounted to 7.54 ± 1.15 h and the half-life was 4.98 ± 1.74 h. Moreover, under setting [1], the Tmax was determined as 6.38 ± 1.69 h. For the same compound, for the setting “serum, 21.4 g/kg/day, rat serum, BHGZD 21.4 g/kg/day gavage once a day for 12 days, multiple dose, sampled day 12, n = 8, mean ± SEM”, the Tmax was 4.62 ± 2.13 h. Also, the “pattern of absorption and elimination in serum” value (rat serum, single or multiple gavages of BHGZD) was “dual-peak response with prolonged pattern of absorption and elimination”.
